Results reported in the NIST ThermoML archive (doi:10.1021/je060017i).
Numbers after ± are expanded uncertainties.

Settings: 101.33 kPa, Liquid

Row | Structure (SMILES) | mass density (283.15 K) [kg/m3] | speed of sound (283.15 K) [m/s] | viscosity (283.15 K) [mPa·s] | mass density (298.15 K) [kg/m3] | speed of sound (298.15 K) [m/s] | viscosity (298.15 K) [mPa·s] | mass density (313.15 K) [kg/m3] | speed of sound (313.15 K) [m/s] | viscosity (313.15 K) [mPa·s]
1 | CC1CCCO1 (stereo not drawn) [2-methyltetrahydrofuran] | 864.17 ± 0.55 | 1276.6 ± 1.6 | 0.5618 ± 0.015 | 849.04 ± 0.56 | 1202.2 ± 1.6 | 0.4776 ± 0.014 | 833.76 ± 0.57 | 1129.9 ± 1.6 | 0.4088 ± 0.012
2 | CCCCO [butan-1-ol] | 816.92 ± 0.59 | 1292.1 ± 1.7 | 3.869 ± 0.087 | 805.73 ± 0.6 | 1242.9 ± 1.6 | 2.561 ± 0.059 | 794.38 ± 0.6 | 1186.3 ± 1.6 | 1.757 ± 0.042
